ChEMBL document CHEMBL3351685, “Synthesis and quantitative structure-activity relationship (QSAR) analysis of some novel oxadiazolo[3,4-d]pyrimidine nucleosides derivatives as antiviral agents” (Bioorg Med Chem Lett, 2015)
Calls of active or inactive are those of the source. No cut-off for these calls is given here.

Legend:
WISH = assay: Cytotoxicity against human WISH cells; assay type: cell-based
[1] = system: Vesicular stomatitis virus; assay: Antiviral activity against vesicular stomatitis virus infected in human WISH cells; assay type: functional; conditions: for EC50: read-out: ED50 (the source's name)
[2] = Selectivity index, ratio of toxic concentration for human WISH cells to ED50 for vesicular stomatitis virus infected in human WISH cells; assay type: toxicity, cell-based; conditions: read-out: Selectivity Index

**Q.** With CC(=O)OC[C@H]1O[C@H](n2c(=O)[nH]c(=O)c3c2no[n+]3[O-])[C@@H](OC(C)=O)[C@@H]1OC(C)=O as the molecule, how does the Activity (WISH) read?
**A.** 398 µmol/L

**Q.** What about the EC50 [1] of the same molecule?
**A.** 691 µM

**Q.** What does the source list for CCn1c(=O)c2c(no[n+]2[O-])n([C@@H]2O[C@@H](COC(C)=O)[C@H](OC(C)=O)[C@H]2OC(C)=O)c1=O?
**A.** Activity (WISH): 20 µmol/L; ED50 [1]: inactive

**Q.** Which results are given for CCn1c(=O)c2c(no[n+]2[O-])n([C@@H]2O[C@H](COCc3ccccc3)[C@@H](OCc3ccccc3)[C@H]2OCc2ccccc2)c1=O?
**A.** Activity (WISH): 1026 µmol/L; EC50 [1]: 498 µM

**Q.** With CC(=O)OC[C@@H]1O[C@@H](n2c(=O)[nH]c(=O)c3c2no[n+]3[O-])[C@H](OC(C)=O)[C@H]1OC(C)=O as the molecule, how does the Activity (WISH) read?
**A.** 380 µmol/L

**Q.** And the EC50 [1]?
**A.** 154 µM

**Q.** Which Activity (WISH) does the source give for CCn1c(=O)c2c(no[n+]2[O-])n([C@H]2O[C@H](COC(C)=O)[C@@H](OC(C)=O)[C@@H]2OC(C)=O)c1=O here?
**A.** 1411 µmol/L

**Q.** And the EC50 [1]?
**A.** 574 µM

**Q.** With CC(=O)OCCOCn1c(=O)[nH]c(=O)c2c1no[n+]2[O-] as the molecule, how does the Activity (WISH) read?
**A.** 2083 µmol/L

**Q.** And the EC50 [1]?
**A.** 651 µM

**Q.** For Nc1nc2c(ncn2COCCO)c(=O)[nH]1 [ACYCLOVIR], which selectivity ratio [2] is on record?
**A.** 2.4

**Q.** And the Activity (WISH)?
**A.** 3414 µmol/L

**Q.** And the EC50 [1]?
**A.** 1410 µM

**Q.** With O=c1[nH]cnc2c1ncn2[C@H]1CC[C@@H](CO)O1 [DIDANOSINE] as the molecule, how does the selectivity ratio [2] read?
**A.** 3.34

**Q.** And the Activity (WISH)?
**A.** 2646 µmol/L

**Q.** What about the EC50 [1] of the same molecule?
**A.** 792 µM

**Q.** Which selectivity ratio [2] does the source give for O=c1[nH]c(=O)n([C@@H]2O[C@H](CO)[C@@H](O)[C@H]2O)c2no[n+]([O-])c12 here?
**A.** 26.9

**Q.** And the Activity (WISH)?
**A.** 2095 µmol/L

**Q.** What about the EC50 [1] of the same molecule?
**A.** 78 µM

**Q.** Which Activity (WISH) does the source give for CCn1c(=O)c2c(no[n+]2[O-])n([C@@H]2O[C@H](COC(C)=O)[C@@H](OC(C)=O)[C@H](OC(C)=O)[C@H]2OC(C)=O)c1=O here?
**A.** 1345 µmol/L

**Q.** What about the EC50 [1] of the same molecule?
**A.** 1210 µM

**Q.** With CC(=O)OC[C@@H]1O[C@@H](n2c(=O)n(C)c(=O)c3c2no[n+]3[O-])[C@H](OC(C)=O)[C@H]1OC(C)=O as the molecule, how does the Activity (WISH) read?
**A.** 300 µmol/L

**Q.** What about the EC50 [1] of the same molecule?
**A.** 135 µM

**Q.** With Cn1c(=O)c2c(no[n+]2[O-])n([C@@H]2O[C@H](COCc3ccccc3)[C@@H](OCc3ccccc3)[C@@H]2F)c1=O as the molecule, how does the Activity (WISH) read?
**A.** 10 µmol/L

**Q.** And the EC50 [1]?
**A.** 1500 µM

**Q.** What does the source list for O=c1[nH]c(=O)n(COCCO)c2no[n+]([O-])c12?
**A.** Activity (WISH): 2561 µmol/L; EC50 [1]: 636 µM

**Q.** For CCn1c(=O)c2c(no[n+]2[O-])n([C@@H]2O[C@H](COC(C)=O)[C@@H](OC(C)=O)[C@H]2OC(C)=O)c1=O, which Activity (WISH) is on record?
**A.** 377 µmol/L

**Q.** What about the EC50 [1] of the same molecule?
**A.** 1230 µM

**Q.** With O=c1[nH]c(=O)n([C@@H]2O[C@H](COCc3ccccc3)[C@@H](OCc3ccccc3)[C@H]2OCc2ccccc2)c2no[n+]([O-])c12 as the molecule, how does the Activity (WISH) read?
**A.** 650 µmol/L

**Q.** What about the EC50 [1] of the same molecule?
**A.** 736 µM

**Q.** With CC(=O)OC[C@H]1O[C@@H](n2c(=O)n(C)c(=O)c3c2no[n+]3[O-])[C@H](OC(C)=O)[C@H]1OC(C)=O as the molecule, how does the Activity (WISH) read?
**A.** 477 µmol/L

**Q.** And the ED50 [1]?
**A.** inactive

**Q.** What does the source list for CC(=O)OC[C@H]1O[C@@H](n2c(=O)n(C)c(=O)c3c2no[n+]3[O-])[C@H](OC(C)=O)[C@@H]1OC(C)=O?
**A.** Activity (WISH): 1460 µmol/L; EC50 [1]: 346 µM

**Q.** Which Activity (WISH) does the source give for CC(=O)OC[C@H]1O[C@@H](n2c(=O)[nH]c(=O)c3c2no[n+]3[O-])[C@H](OC(C)=O)[C@@H]1OC(C)=O here?
**A.** 1459 µmol/L

**Q.** What about the EC50 [1] of the same molecule?
**A.** 345 µM

**Q.** Which results are given for CCn1c(=O)c2c(no[n+]2[O-])n(COCCOC(C)=O)c1=O?
**A.** Activity (WISH): 408 µmol/L; ED50 [1]: inactive

**Q.** What does the source list for CC(=O)OCCOCn1c(=O)n(C)c(=O)c2c1no[n+]2[O-]?
**A.** Activity (WISH): 2077 µmol/L; EC50 [1]: 650 µM

**Q.** Which Activity (WISH) does the source give for CCn1c(=O)c2c(no[n+]2[O-])n(COC(COC(C)=O)COC(C)=O)c1=O here?
**A.** 1475 µmol/L

**Q.** What about the EC50 [1] of the same molecule?
**A.** 651 µM

**Q.** With O=c1[nH]c(=O)n(COC(CO)CO)c2no[n+]([O-])c12 as the molecule, how does the Activity (WISH) read?
**A.** 2279 µmol/L

**Q.** What about the EC50 [1] of the same molecule?
**A.** 555 µM

**Q.** With CCn1c(=O)c2c(no[n+]2[O-])n([C@@H]2O[C@H](COC(C)=O)[C@H](OC(C)=O)[C@H]2OC(C)=O)c1=O as the molecule, how does the Activity (WISH) read?
**A.** 356 µmol/L

**Q.** What about the EC50 [1] of the same molecule?
**A.** 1040 µM

**Q.** Which results are given for CC(=O)OC[C@H]1O[C@@H](n2c(=O)[nH]c(=O)c3c2no[n+]3[O-])[C@H](OC(C)=O)[C@@H](OC(C)=O)[C@@H]1OC(C)=O?
**A.** Activity (WISH): 1300 µmol/L; ED50 [1]: inactive

**Q.** For Cn1c(=O)c2c(no[n+]2[O-])n([C@@H]2O[C@H](COCc3ccccc3)[C@@H](OCc3ccccc3)[C@H]2OCc2ccccc2)c1=O, which Activity (WISH) is on record?
**A.** 1055 µmol/L

**Q.** And the EC50 [1]?
**A.** 473 µM

**Q.** For CC(=O)OC[C@H]1O[C@@H](n2c(=O)[nH]c(=O)c3c2no[n+]3[O-])[C@H](OC(C)=O)[C@H]1OC(C)=O, which Activity (WISH) is on record?
**A.** 387 µmol/L

**Q.** And the ED50 [1]?
**A.** inactive

**Q.** Which Activity (WISH) does the source give for CC(=O)OC[C@H]1O[C@H](n2c(=O)n(C)c(=O)c3c2no[n+]3[O-])[C@@H](OC(C)=O)[C@@H]1OC(C)=O here?
**A.** 378 µmol/L

**Q.** What about the ED50 [1] of the same molecule?
**A.** inactive
